Type in all cases: in vivo
For assay [1], the system named is Nilaparvata lugens (Brown Plant Hopper). In words: Nilaparvata lugens (Brown Plant Hopper) rice seedling spray test, mortality. To be noted: N3 nymphs, mortality 6-12 days after treatment. How it is done:
Nilaparvata lugens (Brown Plant Hopper) Rice seedlings are treated with the diluted test solutions in a spray chamber. After drying, plants are infested with 20 N3 nymphs (2 replicates). 6-12 days after the treatment samples are checked for mortality

Assay [2] concerns Nephotettix virescens (Green Leafhopper). The assay is described as follows: Nephotettix virescens (Green Leafhopper) rice seedling spray test, mortality. Particulars: N5 nymphs, mortality 5 days after treatment. On the procedure:
[…] Nephotettix virescens (Green Leafhopper) Rice seedlings are treated with the diluted test solutions in a spray chamber. After drying, plants are infested with 10 N5 nymphs (3 replicates). 5 days after the treatment samples are checked for mortality.

Assay [3] relates to Chilo suppressalis (Rice Stem Borer). The assay is described as follows: Chilo suppressalis (Rice Stem Borer) treated rice leaf petri dish test, mortality. Particulars: L2 larvae, mortality 5 days after treatment. How it is done: Chilo suppressalis (Rice Stem Borer) Rice seedlings are treated and after drying the leaves are cut and transferred into a petri dish coated with wet filter paper. 10 larvae (L2) are added and the dish is covered with a filter tissue and a plastic lid. 5 days after treatment the percentage mortality is assessed (3 replicates per concentration).

As for `CCN1OC[C@@H](NC(=O)c2ccc(C3=NO[C@@](c4cc(Cl)cc(Cl)c4)(C(F)(F)F)C3)cc2C)C1=O` [Compound A3], the Control/% came out at 100% in assay [1] (rate 12.5 ppm); 100% in assay [1] (rate 25 ppm); 100% in assay [1] (rate 50 ppm); 90% in assay [2] (application rate 3 ppm); 100% in assay [2] (application rate 12 ppm); 100% in assay [2] (application rate 50 ppm). The Control/% stood at 100% in assay [2] (application rate 200 ppm), 97% in assay [3] (application rate 0.05 ppm), 100% in assay [3] (application rate 0.2 ppm) and 100% in assay [3] (application rate 0.8 ppm).
Consider `Cc1cc(C2=NO[C@@](c3cc(Cl)cc(Cl)c3)(C(F)(F)F)C2)ccc1C(=O)N[C@@H]1CON(CC(F)(F)F)C1=O` [Compound A9], for which the Control/% in assay [1] (rate 12.5 ppm) was 98%; in assay [1] (rate 25 ppm) it was 100%; in assay [1] (rate 50 ppm), 100%; in assay [2] (application rate 3 ppm) it was 100%; in assay [2] (application rate 12 ppm), 100%; in assay [2] (application rate 50 ppm), 100%. The Control/% is listed as 100% in assay [2] (application rate 200 ppm), 43% in assay [3] (application rate 0.05 ppm), 100% in assay [3] (application rate 0.2 ppm) and 100% in assay [3] (application rate 0.8 ppm).

These data come from patent publication US9474279B2, “Methods of controlling insects” (Syngenta Participations AG, priority 2012, dated 2016).
